According to ChEMBL document CHEMBL1201862, “PubChem BioAssay data set” (2004):
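Assay format: 96-well plates, 48-hour exposure. GI50: concentration for 50% inhibition of growth.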 Activity calls are given as the source filed them. Cut-off read from the data, not from the text of the source: active = GI50 up to about 1.1 µM and inactive = higher. Where a SMILES comes first, the peptide text is derived from it. The star is where a group is joined. X33 = O=C(c1ccc(-c2ccc(Cl)cc2Cl)o1)*

What was measured:
Assay in all cases: NCI anticancer screen, dose series, 48 h
[1] = system: RPMI-8226
[2] = system: CCRF-CEM
[3] = system: MDA-MB-435
[4] = system: U-251
[5] = system: TK-10
[6] = system: 786-0
[7] = system: ACHN
[8] = system: HOP-62
[9] = system: SN12C
[10] = system: Hs-578T
[11] = system: SK-MEL-2
[12] = system: A549
[13] = system: HCT-116
[14] = system: Malme-3M
[15] = system: OVCAR-3
[16] = system: SK-MEL-5
[17] = system: MDA-N
[18] = system: K562
[19] = system: SF-539
[20] = system: PC-3

Compound	GI50 [1]	GI50 [2]	GI50 [3]	GI50 [4]	GI50 [5]	GI50 [6]	GI50 [7]	GI50 [8]	GI50 [9]	GI50 [10]	GI50 [11]	GI50 [12]	GI50 [13]	GI50 [14]	GI50 [15]	GI50 [16]	GI50 [17]	GI50 [18]	GI50 [19]	GI50 [20]
Cc1cn(C2CC(Br)C(COC(c3ccccc3)(c3ccccc3)c3ccccc3)O2)c(=O)[nH]c1=O (stereo not given)	4.7 µM (inactive)	4.88 µM (inactive)	14.7 µM (inactive)	12.3 µM (inactive)	14.7 µM (inactive)	14.3 µM (inactive)	13.8 µM (inactive)	16.9 µM (inactive)	14.7 µM (inactive)	14.6 µM (inactive)	14.6 µM (inactive)	10.5 µM (inactive)	8.2 µM (inactive)	17.6 µM (inactive)	12.6 µM (inactive)	12.7 µM (inactive)	14.9 µM (inactive)	7.98 µM (inactive)	17.2 µM (inactive)	5.73 µM (inactive)
CCC(C)C(NC(=O)CNC(=O)C(Cc1ccccc1)NC(=O)C1CCCN1C(=O)c1ccc(-c2ccc(Cl)cc2Cl)o1)C(=O)OC (stereo not given) (X33-PFGI-OMe; configuration not given here)	14.7 µM (inactive)	8.09 µM (inactive)	38.9 µM (inactive)	24.5 µM (inactive)	51.9 µM (inactive)	27.1 µM (inactive)	33.8 µM (inactive)	31.1 µM (inactive)	19.8 µM (inactive)	50.2 µM (inactive)	60.5 µM (inactive)	23.9 µM (inactive)	13.6 µM (inactive)	53.7 µM (inactive)	23.5 µM (inactive)	12.2 µM (inactive)	23.4 µM (inactive)	22 µM (inactive)	27.2 µM (inactive)	8 µM (inactive)
Cc1n[nH]c(=O)c2c3c([nH]c12)-c1ccccc1C3	> 100 µM (inactive)	> 100 µM (inactive)	> 100 µM (inactive)	> 100 µM (inactive)	63.4 µM (inactive)	> 100 µM (inactive)	> 100 µM (inactive)	> 100 µM (inactive)	> 100 µM (inactive)	> 100 µM (inactive)	> 100 µM (inactive)	> 100 µM (inactive)	> 100 µM (inactive)	> 100 µM (inactive)	> 100 µM (inactive)	> 100 µM (inactive)	> 100 µM (inactive)	> 100 µM (inactive)	> 100 µM (inactive)	> 100 µM (inactive)
O=C(NC1=C(Cl)C(=O)c2ccccc2C1=O)C(=O)c1c(O)c2ccccc2oc1=O	6.19 µM (inactive)	5.94 µM (inactive)	1.39 µM (inactive)	5.74 µM (inactive)	17.5 µM (inactive)	6.24 µM (inactive)	3.4 µM (inactive)	5.46 µM (inactive)	3.7 µM (inactive)	5.2 µM (inactive)	2.32 µM (inactive)	2.33 µM (inactive)	2.56 µM (inactive)	1.07 µM (active)	1.16 µM (inactive)	0.368 µM (active)	1.37 µM (inactive)	5.15 µM (inactive)	2.8 µM (inactive)	2.88 µM (inactive)
C/C(=N\Nc1nc2cc(C)ccc2s1)c1ccccn1	0.273 µM (active)	0.149 µM (active)	0.982 µM (active)	0.946 µM (active)	2.22 µM (inactive)	0.519 µM (active)	0.25 µM (active)	0.294 µM (active)	0.401 µM (active)	1.29 µM (inactive)	0.4 µM (active)	0.798 µM (active)	0.213 µM (active)	0.332 µM (active)	0.441 µM (active)	0.404 µM (active)	1.68 µM (inactive)	0.0948 µM (active)	1.39 µM (inactive)	0.593 µM (active)
N#Cc1nc(-c2ccccc2C(=O)O)oc1N	> 100 µM (inactive)	> 100 µM (inactive)	> 100 µM (inactive)	> 100 µM (inactive)	> 100 µM (inactive)	> 100 µM (inactive)	> 100 µM (inactive)	> 100 µM (inactive)	> 100 µM (inactive)	> 100 µM (inactive)	> 100 µM (inactive)	> 100 µM (inactive)	> 100 µM (inactive)	> 100 µM (inactive)	> 100 µM (inactive)	> 100 µM (inactive)	> 100 µM (inactive)	> 100 µM (inactive)	> 100 µM (inactive)	> 100 µM (inactive)
CC(=O)N(C(C)=O)c1cc2c3c(c1)CCCN3CCC2	> 10 µM (inactive)	> 10 µM (inactive)	> 10 µM (inactive)	> 10 µM (inactive)	> 10 µM (inactive)	> 10 µM (inactive)	> 10 µM (inactive)	> 10 µM (inactive)	> 10 µM (inactive)	> 10 µM (inactive)	> 10 µM (inactive)	> 10 µM (inactive)	> 10 µM (inactive)	> 10 µM (inactive)	> 10 µM (inactive)	> 10 µM (inactive)	> 10 µM (inactive)	> 10 µM (inactive)	> 10 µM (inactive)	> 10 µM (inactive)
Cc1c(-c2nc(N)c(C#N)c(N)c2C#N)c(=O)oc2ccccc12	23.6 µM (inactive)	69 µM (inactive)	> 10 µM (inactive)	55.3 µM (inactive)	> 100 µM (inactive)	73.8 µM (inactive)	> 100 µM (inactive)	67.3 µM (inactive)	> 100 µM (inactive)	> 100 µM (inactive)	> 100 µM (inactive)	45.7 µM (inactive)	78.2 µM (inactive)	> 100 µM (inactive)	> 100 µM (inactive)	87.5 µM (inactive)	> 100 µM (inactive)	59.4 µM (inactive)	> 100 µM (inactive)	34.5 µM (inactive)
O=[N+]([O-])/C=C/c1cc2ccc3ccccc3c2[nH]1	0.229 µM (active)	0.299 µM (active)	1.69 µM (inactive)	1.34 µM (inactive)	1.58 µM (inactive)	1.36 µM (inactive)	1.54 µM (inactive)	1.98 µM (inactive)	1.86 µM (inactive)	3.56 µM (inactive)	0.796 µM (active)	2.16 µM (inactive)	1.52 µM (inactive)	1.55 µM (inactive)	1.55 µM (inactive)	1.64 µM (inactive)	1.67 µM (inactive)	1.8 µM (inactive)	1.86 µM (inactive)	1.46 µM (inactive)
COC(=O)/C=C(\S/C(=C(/c1ccccc1)n1cc(C(=O)OC)c(C(=O)OC)n1)c1ccccc1)C(=O)OC	1.95 µM (inactive)	3.12 µM (inactive)	15.8 µM (inactive)	23.2 µM (inactive)	2.86 µM (inactive)	4.79 µM (inactive)	3.29 µM (inactive)	16 µM (inactive)	16.5 µM (inactive)	33.3 µM (inactive)	14.9 µM (inactive)	23.9 µM (inactive)	12.1 µM (inactive)	14.8 µM (inactive)	3.27 µM (inactive)	19.3 µM (inactive)	17.1 µM (inactive)	3.54 µM (inactive)	15.8 µM (inactive)	16.4 µM (inactive)
